Converted amounts (≈) assume the structure as drawn. “And” between values parts separate entries of the source, which are not always exact repeats. Identical values can stand only once.
Experiments:
[1] = tested on: HEK293; assay: Cytotoxicity (CellTiter-Glo), HEK293; type: cell-based; conditions: HEK293, 24 h
Method: HepG2 (ATCC, HB-8065) and HEK293 (ATCC, CRL-1573) were sourced from ATCC. For the cytotoxicity assay, cells were seeded onto 96-well plates, which were then incubated for 24 h in a 5% CO2 incubator at 37°C. On the day of the assay, 10-point, twofold serial dilutions of test compound were prepared in assay media (MEM + 10% FBS) in separate 96-well plates. Assay plates were removed from the incubator, and the media from all of the wells were removed, taking care not to disturb the cell layer. Compound-containing assay media or control media were added to the relevant wells. Assay plates were returned to the 5% CO2 incubator at 37°C for 24 h. CellTiter-Glo reagent (Promega, G7570) was used to determine the viability of the cells.

[2] = tested on: two respiratory isolates (carrying NDM-5 and TEM-OSBL) from Russia in 2019; assay: MIC against two cefiderocol-resistant respiratory isolates; type: cell-based
Method: (§1) MIC tests were performed by broth microdilution in-line with CLSI susceptibility testing standards ([20], [21]) either in-house or at IHMA (Europe and USA) or JMI Laboratories using cation-adjusted Mueller Hinton Broth.

[3] = tested on: E. coli BAA 2469 (NDM-1 positive); assay: Murine bloodstream infection model; type: in vivo, male CD-1 mice; conditions: 60-min IV infusion, readout 9 h, below the limit of detection
Method: Male JVC-cannulated CD-1 mice were infected intraperitoneally with E. coli BAA2469. At t = 1 h and t = 6 h, SMT-738 was intravenously infused over 60 min (BID). The mice from the pre-treatment group were euthanized at 1 h post-infection. All remaining mice were euthanized at 9 h post-infection, and blood samples were collected via cardiac puncture. Blood samples were serially diluted in PBS and plated onto cystine-lactose-electrolyte-deficient (CLED) agar. The viable bacterial burden for each sample was determined following overnight incubation at 37°C. A Kruskal-Wallis statistical test was performed.

[4] = tested on: E. coli; assay: MIC by broth microdilution (CLSI) against E. coli; type: cell-based, Escherichia coli
Method: as §1

[5] = tested on: E. coli UTI89; assay: Murine UTI infection model; type: in vivo, female C3H/HeN mice; conditions: urine and kidney, 20 mg/kg QD or BID, 60-min IV infusion over 3 days, readout 96 h; below the limit of detection
Method: Female JVC (jugular venous catheter)-cannulated C3H/HeN mice were placed on drinking water which was supplemented with 5% glucose solution prior to infection. Mice were infected transurethrally with E. coli UTI89 following published methods. SMT-738 was intravenously infused over 60 min once (QD) or twice (BID, 4 h after the end of first infusion) per day for 3 days starting 24 h post-inoculation. The mice from pre-treatment group were euthanized (with an overdose of pentobarbitone) at 24 h, the remaining mice were euthanized at 96 h post-infection. The kidney, bladder, and urine were collected and quantitatively cultured by plating serial dilutions on appropriate media; CFU were counted after overnight incubation at 37°C. A Kruskal-Wallis statistical test was performed.

[6] = tested on: KPM (K. pneumoniae NCTC 13438); assay: Frequency of resistance determination, K. pneumoniae; type: cell-based, Klebsiella pneumoniae; conditions: for LoD Range: experiments with no colonies observed; for FoR Range: experiments with colonies observed
Method: (§2) The FoR of bacterial strains to test compounds was determined by plating aliquots of overnight cultures onto MH-agar plates containing dilutions of the test compound at various multiples of reference MIC as previously determined. Total viable counts of the overnight cultures were determined by spotting 10–20 µL of decimal dilutions in 1× phosphate-buffered saline (PBS) onto non-selective agar. Assay plates were incubated for up to 48 h with colonies being enumerated every 24 h. FoR was determined by dividing the number of colonies observed by the total number of viable cells plated. Representative colonies were then picked and streaked onto selective agar to confirm resistance and obtain resistant isolates. Isolates growing on selective agar were then used to initiate overnight cultures, bacteria pelleted by centrifugation, supernatant removed, and pellets stored at −80°C for subsequent DNA extraction and whole-genome sequencing. Genomic DNA was extracted using the DNeasy Blood and Tissue Kit (Qiagen), quantified using the Quant-iT TM PicoGreen TM dsDNA Assay Kit (Thermo Fisher Scientific), and normalized to 0.2 ng/µL in nuclease-free water. Library preparation and barcode addition were with the Nextera XT DNA Library Prep Kit (Illumina). KAPA Pure beads (Roche) were used for DNA purification. Samples were pooled to achieve 100× coverage of each sample and run on an Illumina Nextseq 500/550 Mid Output Kit v2.5 (150 cycles) (Illumina).

[7] = tested on: UPEC (E. coli NCTC 13441); assay: Frequency of resistance determination, E. coli; type: cell-based, Escherichia coli; conditions: for FoR Range: experiments with colonies observed
Method: as §2

[8] = tested on: E. coli NCTC 13441; assay: Time-kill experiment, E. coli; type: cell-based, Escherichia coli; conditions: 2× and 4× the MIC
Method: An overnight culture of the test strain was diluted to a viable cell density of ~10^6 CFU/mL and dispensed into 96-well plates containing dilutions of SMT-738 to yield the specified multiple of the MIC. Plates were sealed with a breathable seal and incubated under shaking conditions in a humid incubator at 37°C. At specific timepoints (t = 0, 1, 2, 4, 6, 8, and 24 h), samples were taken and plated onto MH agar plates, and colonies enumerated after overnight growth at 37°C. Viable cell numbers as log10 (CFU/mL) were then plotted against time. Where no colonies were detected, the limit of detection was 100 CFU/mL. Compound activity was scored as bactericidal if the viable cell count decreased by at least 3 log10 from the initial count.

[9] = 100 MDR clinical isolates incl. ESBL and CRE
[10] = single-step selection at 4× and 8× the MIC, after 24 and 48 h

Cc1cnccc1-c1[nH]c(N)nc1-c1ccc2c(c1)N(C(=O)C(C)(C)N)CCO2 [SMT-738]
IC50 [1]: > 200 µM | cytotoxicity IC50 [1]: > 78.74 µg/mL | MIC ([2]; first of the two respiratory isolates): 0.25 µg/mL (≈ 0.637 µM) | MIC ([2]; second of the two respiratory isolates): 0.5 µg/mL (≈ 1.27 µM) | efficacy in the blood ([3]; 10 mg/kg BID): almost as efficacious as the 20 mg/kg BID dose | reduction of bacterial burden compared to pre-treatment ([3]; blood, 20 mg/kg BID): 4 log10 | MIC Range E. coli (NDM) ([4]; 15 clinical MDR NDM isolates (NDM-1, NDM-4, NDM-5) from India (2018)): 0.25 to 1 µg/mL | MIC50 E. coli [4, 9]: 0.5 µg/mL (≈ 1.27 µM) | MIC90 E. coli [4, 9]: 1 µg/mL (≈ 2.55 µM) | MIC range E. coli [4, 9]: 0.12 to 4 µg/mL | MIC ([4]; E. coli BAA 2469 (NDM-1 positive)): 0.5 µg/mL (≈ 1.27 µM) | MIC (20% HS) ([4]; E. coli IHMA 2015405, 20% human serum): 0.25 µg/mL (≈ 0.637 µM) | MIC (50% HS) ([4]; E. coli IHMA 2015405, 50% human serum): 0.25 µg/mL (≈ 0.637 µM) | MIC (no HS) ([4]; E. coli IHMA 2015405, no human serum): 0.5 µg/mL (≈ 1.27 µM) | MIC (20% HS) ([4]; E. coli IHMA 2051414, 20% human serum): 0.5 µg/mL (≈ 1.27 µM) | MIC (50% HS) ([4]; E. coli IHMA 2051414, 50% human serum): 0.5 µg/mL (≈ 1.27 µM) | MIC (no HS) ([4]; E. coli IHMA 2051414, no human serum): 0.5 µg/mL (≈ 1.27 µM) | MIC ([4]; E. coli NCTC 13441 (UPEC, MDR, CTX-M-15 ESBL)): 0.39 µM and 0.15 µg/mL | MIC ([4]; E. coli UTI89): 0.5 µg/mL (≈ 1.27 µM) | MICref ([4]; UPEC13441, reference MIC of the FoR experiments): 0.3 µg/mL | reduction of bacterial burden compared to pre-treatment [5]: 5–6 log10 | LoD Range ([6]; 4× MICref, 24 h): < 2.26E-09 | FoR Range ([6]; 4× MICref, 48 h): 1.50E-09 | LoD Range ([6]; 4× MICref, 48 h): < 2.26E-09 | LoD Range ([6]; 8× MICref, 24 h): < 2.26E-09 | FoR Range ([6]; 8× MICref, 48 h): 3.75E-10 | LoD Range ([6]; 8× MICref, 48 h): < 2.26E-09 | Frequency of resistance (FoR) [6, 10]: ≤ 10^−9 | FoR Range ([7]; 4× MICref, 48 h): 1.52E-09 | FoR Range ([7]; 8× MICref, 24 h): 7.20E-10 | Frequency of resistance (FoR) [7, 10]: ≤ 10^−9 | re-growth over the 24-h timepoint [8]: no observed re-growth | timepoint at which bactericidal activity was displayed [8]: 2 h | reduction of viability ([8]; 2-h timepoint): > 3 log10 CFU/mL

From PMC10777851, “SMT-738: a novel small-molecule inhibitor of bacterial lipoprotein transport targeting Enterobacteriaceae” (Antimicrobial Agents and Chemotherapy, 2023)
